Values of other authors, collected in patent US20160158274A1, “COMPOSITION FOR MUCOUS DISPERSION OR HYDRATION, CONTAINING POLY-r-[sequence] ACID” (BIOLEADERS CORPORATION, priority 2013, published 2016).

Test system: mucin
Details: mucin in cystic fibrosis

O=C(O)CN(CCN(CC(=O)O)CC(=O)O)CC(=O)O [EDTA]
dispersion of aggregated mucin: assist in dispersion of mucin
